{
  "source": "patent US8106092B2",
  "about": "“Treatment of solid cancers” (priority 2004, dated 2012)",
  "key": {"B16 lung metastases": {"system": "B16 lung metastases", "experiment": "B16 lung metastasis model", "type": "in vivo, C57BL/6 mice", "procedure": "FIG. 5 is a graphical representation showing the treatment of s.c. B16 tumors with PEP005 reduced growth B16 lung metastases. C57BL/6 mice (n=7) were injected with 10^6 B16 cells s.c. and 5×10^4 B16 cell i.v. on d−2. On dO the s.c. tumors had reached an average 21.8 mm^2+SE 2.4 and were cured with 25 μg of i.t. PEP005 formulated with PEG400. On d18 the mice were euthanazed and lung weights determined (PEP005). Control mice received only i.v. B16 and naïve mice received no tumors (n=6 per group).\nThe activity of PEP005-mediated cure of primary tumors was assessed in a more robust model using B16 tumors rather than B16-OVA tumors and where primary tumors and lung metastases were both established prior to PEP005 treatment. When the primary tumors had reached 21.8+SE 2.4 they were cured with i.t. PEP005 injection. […] After subtracting the weight of tumor free lungs (FIG. 5A, naïve, dotted line), this represented a reduction in lung tumor burden of over 50%."}, "B16 tumors [1]": {"system": "B16 tumors", "experiment": "Example 4: i.t. PEP005 on RHS primary B16 tumor with or without DC+IL-2, growth of LHS secondary tumor", "type": "in vivo, C57BL/6 mice", "from_the_text": "It has previously been established that PEP005-mediated curing of primary tumors can lead to the reduction secondary tumors in a B16-OVA lung metastasis and a s.c. Lewis lung-OVA model. These studies were extended (i) using a model where the model antigen ovalbumin is absent, (ii) using a system where both primary and secondary tumors are established before treatment initiation and (iii) using DC therapy combined with PEP005-mediated curing of primaries, to determine whether the two treatments can improve the anti-cancer effect on the secondary tumors.\n[…], three groups of C57BL/6 mice were inoculated with 1×10^5 B16 s.c. on the right hand side of the back (RHS) and 2×10^4 s.c. on the left hand side of the back (LHS). A fourth group (Group 4) received only 2×10^4 s.c. on the left hand side of the back (LHS). On d0. the groups were given the following treatments:\nPEP005 RHS: The larger RHS tumors were treated intra-tumorally with 25 μg PEP005 in 50 μl of 5% w/v DMSO in RPMI 1640 supplemented with HEPES 10 mM.\nPEP005 RHS+DC+IL-2: The large RHS tumors were treated as for Group 1 plus the animals received on d0 DC2.4 cells (i) activated with LPS (for 3 hr incubation at 37° C. using 1 μg/ml E. coli 055:B5, Sigma), (ii) sensitized with TRP-2 peptide, SVYDFFVWL [SEQ ID NO:1] (30 μg/ml 2 hr, 37° C.), (iii) irradiated (5000 rads), washed and then injected i.v. (4×10^6/mouse iv) on d0. The animals also received rhIL-2 at 5×10^4 IU given twice daily per mouse from d0 to d4 i.p.\nCONT TREAT RHS: Mock treatment group; the larger RHS tumors were treated intra-tumorally with 50 μl of 5% w/v DMSO in RPMI1640 supplemented with HEPES 10 mM.\nNO RHS: This group had no RHS tumor and received no treatment."}, "B16 tumors [2]": {"system": "B16 tumors", "experiment": "B16-specific antibody responses by ELISA after PEP005 treatment of B16 tumors", "type": "in vivo, C57BL/6 mice", "conditions": "as early as d11; exceeding untreated animals with large tumor burdens, p=0.045 at 1/100 dilution", "procedure": "FIG. 15 is a graphical representation showing antibody responses following PEP005 treatment of B16 tumors. B16 tumors growing on C57BL/6 mice were cured with PEP005 treatment after they had reached 30-60 mm^3, (one tumor per mouse) and B16-specific antibody titers were measured by standard ELISA on blood taken d11 post treatment initiation (n=6) (▪) or d135 post treatment initiation (n=5) (▴). Antibody titers for untreated animals whose tumors had reached 121.5±SD 20.1 (n=4) by d11 are also shown (X). Naïve mice (n=5) received no tumors (i).\nAnti-tumor antibodies are known to have anti-cancer activity. […] B16 cells (10^6) were injected s.c. (1 tumor/mouse) into the flanks of female, 6-10 week-old mice and when tumors had reached ≈30-60 mm^3 they were treated with PEP005 as above. On d11 and 135 serum was taken and analyzed by ELISA for antibodies specific for B16. A group of B16 bearing animals which were not treated with PEP005 and a naïve group were also included. B16 cells were sonicated in carbonate buffer 9pH=9) and absorbed onto Immuno Maxisorp 96 well plates (Nunc) overnight and dried. The plates were blocked with 5% v/v FBS, 0.01% v/v Tween in PBS for 1 hour at 37° C. […]"}, "B16-OVA tumors": {"system": "B16-OVA tumors", "experiment": "SIINFEKL-specific CD8+ T-cell induction after topical PEP005 treatment of B16-OVA (IFNγ ELISPOT)", "type": "in vivo, C57/BL6 mice", "procedure": "B16 and B16 cells stably expressing ovalbumin (B16-OVA)were grown s.c. in C57BL/6 mice as described previously (Ogbourne et al, Cancer Res 64:2833-2839, 2004; Anraku et al, J Virol 76:3791-3799, 2002). Lung metastases were established as described (Zeh et al, J Immunol 162:989-994, 1999). Lewis lung-OVA (Nelson et al, J Immunol 166:5557-5566, 2001) were grown s.c. in C57BL/6 as described (Lenarczyk et al, Vaccine 22:963-974, 2004).\nTumors were treated by topical or intratumoral (i.t.) injection (using a 26 gauge needle) of (i) PEP0005 dissolved in acetone and then RPMI 1640 (final concentration of acetone 4%), or (ii) PEP005 formulated in PEG400.\nMouse splenocytes were analyzed by ex vivo IFNγ ELISPOT essentially as described previously (Le et al, Vaccine 19:4669-4675, 2001), but using MultiScreen-IP plates (Millipore) and 25 IU/ml of recombinant human IL-2 (Cetus).\nFollowing three topical applications of PEP005 to established s.c. B16-OVA tumors on C57/BL6 mice, the number of SIINFEKL [SEQ ID NO:2]-specific CD8^+ T-cell induced were measured using IFNγ ELISPOT. As controls, the SIINFEKL [SEQ ID NO:2] specific CM^+ T-cell induced following (i) PEP005 treatment without tumor, (ii) mock treatment of B16 tumors and (iii) naïve mice (no PEP005 or tumor), were also tested."}},
  "data": [
    {"smiles": "C/C=C(/C)C(=O)O[C@H]1C(C)=C[C@]23C(=O)[C@@H](C=C(CO)[C@@H](O)[C@]12O)[C@H]1[C@@H](C[C@H]3C)C1(C)C", "note": "[PEP005, ingenol-3-angelate]", "values": [
      {"measurement": "reduction in lung tumor burden", "setting": "B16 lung metastases; after subtracting the weight of tumor free lungs, d18", "value": "over 50%"},
      {"measurement": "lung weights on d18 compared to controls", "setting": "B16 lung metastases; s.c. B16 primaries cured with i.t. PEP005, lung metastases established before treatment, p=0.023", "value": "lighter"},
      {"measurement": "tolerability of i.t. treatment", "setting": "B16 tumors [1]; 25 μg PEP005 in 50 μl of 5% w/v DMSO in RPMI 1640, i.t.", "value": "not well tolerated"},
      {"measurement": "RHS (primary) tumors successfully cured", "setting": "B16 tumors [1]; i.t. 25 μg PEP005 on d0", "value": "5/6"},
      {"measurement": "mice dying shortly after i.t. treatment", "setting": "B16 tumors [1]; in each of Group 1 and 2 (n=7 each), PEP005 using DMSO", "value": "one"},
      {"measurement": "survival (deaths due to growth of LHS tumor) vs NO RHS group", "setting": "B16 tumors [1]; mouse, in vivo", "value": "behaved essentially identically"},
      {"measurement": "growth of LHS (secondary) tumor d5 to d11 vs NO RHS", "setting": "B16 tumors [1]; p=0.042", "value": "slower"},
      {"measurement": "B16-specific antibody responses (ELISA)", "setting": "B16 tumors [2]", "value": "clearly detectable antibody responses"},
      {"measurement": "tumor bearing animals cured", "setting": "B16-OVA tumors; B16-OVA tumors treated topically with PEP005", "value": "4/7"},
      {"measurement": "SIINFEKL-specific CD8+ T-cell responses (IFNγ ELISPOT)", "setting": "B16-OVA tumors; mice receiving PEP005 without tumor, limit of detection five spots/10^6 splenocytes", "value": "no significant responses"},
      {"measurement": "SIINFEKL-specific CD8+ T-cell responses (IFNγ ELISPOT)", "setting": "B16-OVA tumors; mice with B16-OVA tumors treated with three topical applications of PEP005 (cured mice, n=4), p=0.058 vs combined negative controls", "value": "some weak variable responses"}
    ]}
  ]
}
